Experimental findings from PMC11684029, “Discovery of VU6024578/BI02982816: An mGlu1 Positive Allosteric Modulator with Efficacy in Preclinical Antipsychotic and Cognition Models” (Journal of Medicinal Chemistry, 2024) are described below.

Usually IC50 stands for the midpoint of a concentration-inhibition curve. High values mean weaker potency in that assay, low ones greater potency in that assay.

The test system of one data set is C57Bl/6 mice. Briefly: amphetamine-induced hyperlocomotion (mouse). The class given is in vivo. On the procedure:
In parallel with the rat AHL study, we carried out a mouse AHL study to determine if the PK/PD relationship would remain intact across rodent species. Here, amphetamine was dosed to C57Bl/6 mice at 3 mg/kg s.c. to achieve ∼800 beam breaks, followed by the oral administration of 19d at 3, 10, and 30 mg/kg (Figure 8). […] Thus, mGlu1 has sufficient target coverage and PK/PD^24 is established for this paradigm in mouse and agree well with the PK/PD relationship established in rat for both NOR and AHL wherein free brain concentrations at or above the in vitro EC50 facilitates a significant pharmacodynamic response.
Figure 8 Mouse amphetamine-induced hyperlocomotion and reversal by VU6024578 (19d). Amphetamine (3.0 mg/kg s.c.) induced robust hyperlocomotion, which was dose-dependently reversed by oral administration (0.5% Natrasol/0.015% tween 80 in H2O) of 19d. TEXT PRINTED IN THE PICTURE: VU6024578-09: Mean % reversal: -7.7 ± 32.6 (3 mg/kg i.p. + Amphetamine 3 mg/kg s.c.); Mean % reversal: 84.2 ± 10.2 (10 mg/kg i.p. + Amphetamine 3 mg/kg s.c.); Mean % reversal: 90.0 ± 12.7 (30 mg/kg i.p. + Amphetamine 3 mg/kg s.c.)
Adult male C57/bl6 mice are placed in the activity chambers (Med Associates) to habituate. 90 min later the mice were administered VU6024578 (3–30 mg/kg i.p. Ten ml/kg) or vehicle (0.5% natrasol/0.015% Tween 80) and placed back in the activity chambers. Thirty minutes later the animals were administered Amphetamine (3 mg/kg) and placed back in the activity chambers for 1 h. The data for the studies were analyzed by a between-group 2 way analysis of variance for compound dose and time. Total ambulation from 125 to 180 min was analyzed by one-way ANOVA. Each dose group was compared with the vehicle control group. The calculations were performed and graphed using GraphPad Prism (version 4.03, GraphPad, La Jolla, CA).

Another data set deals with rats. Briefly: rotarod. Particulars: rat, doses up to 10 mg/kg. The class given is in vivo. On the procedure: In order to enable our target validation work, we first profiled PAM 19d in a rat locomotor battery to ensure that pharmacodynamic efficacy was not mistaken for gross effects on locomotion.[20] […] PK was performed in parallel to establish a PK/PD relationship.[24]
On the first day, the animals were placed on the rotarod apparatus which was rotating at a speed of 20 rpm. If the rats fall of the bar, the animals were placed back on the apparatus for a total of 2 min. On the day of testing, adult male rats were pretreated with VU6024578 (1–10 mg/kg) 65 min before being placed on the rotarod apparatus. Testing consisted of accelerating rotarod from 4 to 40 rpm over 5 min. The time and final speed when the rats fall off of the apparatus was recorded.

The nature of data set [1]: brain exposure in rat AHL Cmax versus Ctrough study. The class given is in vivo. On the procedure:
Based on these positive behavioral data and the clear PK/PD relationship tied to achieving free brain levels at, or above, the mGlu1 PAM EC50, we next wanted to define the role of Cmax versus Ctrough drug (19d) concentrations in driving the PK/PD relationship. To accomplish this, pretreatment times and doses were calculated based upon previous PK (see Supporting Information Figure S3)[20] data to target free brain concentrations at and below the in vitro EC50 at the time of amphetamine challenge. Rats were pretreated with 3 mg/kg 19d or vehicle after habituation to the locomotor chambers are described in Figure 9A. Rats pretreated with 19d (10–60 mg/kg) or vehicle were administered compound prior to starting the amphetamine-induced hyperlocomotion experiment as depicted in Figure 9B-D. Ambulations were evaluated for 90 min post amphetamine treatment for all dosing groups. Pretreatment of 19d, chamber habituation, amphetamine treatment and ambulation recording times are outlined for each dosing group in Figure 9. Blood and brain samples were obtained at the end of testing (EOT) to determine 19d levels at the end of the study (Table 6).
The terminal free brain concentrations for this dosing group were 40 nM. […]

The target in the next data set is hERG (Homo sapiens, UniProt Q12809). Briefly: hERG manual patch clamp assay. Type of data set: cell-based. For orientation: hERG is a cardiac potassium channel; its block is linked to QT prolongation.
Sequence of hERG (Q12809 whole entry): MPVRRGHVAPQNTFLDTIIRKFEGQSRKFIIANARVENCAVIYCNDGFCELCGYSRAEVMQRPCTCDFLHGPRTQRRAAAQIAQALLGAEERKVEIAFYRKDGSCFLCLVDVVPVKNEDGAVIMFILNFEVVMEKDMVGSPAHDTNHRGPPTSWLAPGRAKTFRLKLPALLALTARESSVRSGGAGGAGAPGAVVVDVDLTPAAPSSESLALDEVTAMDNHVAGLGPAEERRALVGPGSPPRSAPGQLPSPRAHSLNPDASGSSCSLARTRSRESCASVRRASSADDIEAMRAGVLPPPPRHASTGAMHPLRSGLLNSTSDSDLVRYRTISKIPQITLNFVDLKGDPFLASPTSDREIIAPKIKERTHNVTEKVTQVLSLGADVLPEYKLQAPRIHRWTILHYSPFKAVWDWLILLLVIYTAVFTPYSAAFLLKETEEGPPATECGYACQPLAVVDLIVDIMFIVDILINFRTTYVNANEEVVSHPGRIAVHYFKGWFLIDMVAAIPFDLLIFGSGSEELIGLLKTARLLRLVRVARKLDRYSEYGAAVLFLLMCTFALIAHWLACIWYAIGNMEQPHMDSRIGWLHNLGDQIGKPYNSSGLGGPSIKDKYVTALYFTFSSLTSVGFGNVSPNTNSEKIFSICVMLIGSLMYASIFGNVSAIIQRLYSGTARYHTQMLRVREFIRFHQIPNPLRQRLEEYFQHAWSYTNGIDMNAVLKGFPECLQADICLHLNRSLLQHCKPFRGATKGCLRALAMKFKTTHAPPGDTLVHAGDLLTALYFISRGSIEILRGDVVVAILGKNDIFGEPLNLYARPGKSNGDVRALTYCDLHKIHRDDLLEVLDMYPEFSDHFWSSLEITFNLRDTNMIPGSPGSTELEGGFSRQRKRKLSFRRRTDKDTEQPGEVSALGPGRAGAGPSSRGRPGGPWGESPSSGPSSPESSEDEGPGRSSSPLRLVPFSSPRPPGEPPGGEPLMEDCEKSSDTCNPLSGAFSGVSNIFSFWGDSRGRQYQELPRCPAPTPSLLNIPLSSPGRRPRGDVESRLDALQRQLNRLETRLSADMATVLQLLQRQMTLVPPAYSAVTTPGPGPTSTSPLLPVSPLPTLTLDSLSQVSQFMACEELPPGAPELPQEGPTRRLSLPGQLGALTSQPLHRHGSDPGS
A short description of data set [2]: plasma protein binding, equilibrium dialysis. Particulars: fraction unbound. The class given is in vitro ADME, human. On the procedure: The protein binding of each compound was determined in plasma via equilibrium dialysis employing RED Plates (ThermoFisher Scientific, Rochester, NY). Plasma was added to the 96 well plate containing test compound and mixed thoroughly for a final concentration of 5 μM. Subsequently, an aliquot of the plasma-compound mixture was transferred to the cis chamber (red) of the RED plate, with an phosphate buffer (25 mM, pH 7.4) in the trans chamber. The RED plate was sealed and incubated for 4 h at 37 °C with shaking. At completion, aliquots from each chamber were diluted 1:1 with either plasma (cis) or buffer (trans) and transferred to a new 96 well plate, at which time ice-cold acetonitrile containing internal standard (50 ng/mL carbamazepine) (2 volumes) was added to extract the matrices. The plate was centrifuged (3000 rcf, 10 min) and supernatants transferred and diluted 1:1 (supernatant: water) into a new 96 well plate, which was then sealed in preparation for LC/MS/MS analysis. Each compound was assayed in triplicate within the same 96-well plate. Fraction unbound was determined using the following equation [drawing 1]
(In equilibrium dialysis free small molecules cross a membrane that holds back macromolecules.)

The structures appear in SMILES notation.

On to `Cn1nc(-c2ccnn2C)cc1CNC(=O)c1cc(-c2ccco2)ccc1Cl` [Compound 19d, 2-Chloro-N-((1,2′-dimethyl-1H,2’H-[3,3′-bipyrazol]-5-yl)methyl)-5-(furan-2-yl)benzamide], for which the entries for the “reversal of AHL, in words” value in the data set with C57Bl/6 mice (3 mg/kg), with C57Bl/6 mice (10 mg/kg) and with C57Bl/6 mice (30 mg/kg) were “no reversal”, “Full reversal” and “Full reversal”, respectively. Also, the entries for the “Mean % reversal of AHL” value with C57Bl/6 mice (3 mg/kg i.p.), in the data set on C57Bl/6 mice (10 mg/kg i.p.) and with C57Bl/6 mice (30 mg/kg i.p.) were -7.7 ± 32.6%, 84.2 ± 10.2% and 90.0 ± 12.7%, respectively. The rotarod result in the data set with rats was “lack of effect”. For the same compound, the “Cmax over rat in vitro potency” value in data set [1] (60 mg/kg, at Tmax) was found to be 6.8 fold. In addition, the concentration at 2.5 h in data set [1] (Sprague-Dawley, brain, oral, 3 mg/kg, pretreatment time 2.5 hr, read-out: Brain Unbound @EOT) came to 40 nM. Besides, the concentration at 6.5 h in data set [1] (Sprague-Dawley, brain, oral, 10 mg/kg, pretreatment time 6.5 hr, read-out: Brain Unbound @EOT) was 44 nM. The concentration at 15 h in data set [1] (Sprague-Dawley, brain, oral, 60 mg/kg, pretreatment time 15 hr, read-out: Brain Unbound @EOT) was determined as 3 nM. Moreover, in data set [1] (Sprague-Dawley, brain, oral, 60 mg/kg, pretreatment time 30 hr, read-out: Brain Unbound @EOT), the concentration at 30 h is 6 nM. In addition, on hERG, the IC50 was > 10 µM. Further, the human fuplasma in data set [2] is recorded as 0.03.
